21 molecules from ChEMBL document CHEMBL4665695, “Antifungal Phenols from Woodfordia uniflora Collected in Oman” (2020) can be followed below.

In general, MIC refers to the lowest concentration found to suppress growth.

Values after ≈ are worked out from the molar mass of the structure shown. Some results are limits rather than exact numbers.

What all share (assay type): functional
In experiment [1] the test system is Cryptococcus neoformans. Description: Antifungal activity against Cryptococcus neoformans H99 by CLSI protocol-based broth serial dilution method.
Experiment [2] relates to Cryptococcus neoformans. The experiment is described as follows: Antifungal activity against Cryptococcus neoformans JEC21 by CLSI protocol-based broth serial dilution method.
The test system of a further experiment is Candida albicans. Description: Antifungal activity against Candida albicans SC5314 by CLSI protocol-based broth serial dilution method.

With `CC(=O)[C@@H](CC(=O)O)[C@H]1Oc2cc(O)cc(O)c2C[C@@H]1O`, the MIC was 169 µM (≈ 50 µg/mL) in the experiment with Cryptococcus neoformans [1], 169 µM (≈ 50 µg/mL) against Cryptococcus neoformans [2] and over 169 µM in the experiment on Candida albicans.

`O=c1c(O[C@@H]2O[C@H](CO)[C@@H](O)[C@H](O)[C@H]2O)c(-c2ccc(O)c(O)c2)oc2cc(O)cc(O)c12` [ISOQUERCETIN]: the MIC was 53.9 µM (≈ 25 µg/mL) against Cryptococcus neoformans [1], 108 µM (≈ 50 µg/mL) in the experiment on Cryptococcus neoformans [2] and over 108 µM in the experiment on Candida albicans.

As for `Oc1cc(O)c2c(c1)O[C@H](c1ccc(O)c(O)c1)[C@@H](O)[C@@H]2c1c(O)cc(O)c2c1O[C@H](c1ccc(O)c(O)c1)[C@@H](O)C2`, the results for the minimal inhibitory concentration (MIC) against Cryptococcus neoformans [1], with Cryptococcus neoformans [2] and in the experiment with Candida albicans were 5.4 µM (≈ 3.12 µg/mL), 5.4 µM (≈ 3.12 µg/mL) and over 86.5 µM, respectively.

Regarding `CCOC(=O)c1cc(O)c(O)c(O)c1` [ETHYLGALLATE], the MIC is 126 µM (≈ 25 µg/mL) against Cryptococcus neoformans [1], 252 µM (≈ 50 µg/mL) in the experiment with Cryptococcus neoformans [2] and over 252 µM in the experiment with Candida albicans.

With `COc1cc(O)c2c(=O)c(O[C@@H]3O[C@@H](C)[C@H](O)[C@@H](O)[C@H]3O)c(-c3ccc(O)c(O)c3)oc2c1`, the MIC in the experiment with Cryptococcus neoformans [1] is 27 µM (≈ 12.5 µg/mL); against Candida albicans it was over 433 µM.

As for `O=C(Oc1cc(O)c2c(c1)O[C@H](c1ccc(O)c(O)c1)[C@@H](O)C2)c1cc(O)c(O)c(O)c1`, the MIC in the experiment with Cryptococcus neoformans [1] amounted to 1.8 µM (≈ 0.796 µg/mL); in the experiment with Candida albicans, 56.6 µM (≈ 25 µg/mL).

Regarding `O=C(Oc1cc(O)c2c(c1)O[C@@H](c1ccc(O)c(O)c1)CC2)c1cc(O)c(O)c(O)c1`, the results for the MIC in the experiment with Cryptococcus neoformans [1], against Cryptococcus neoformans [2] and in the experiment with Candida albicans were 1.9 µM (≈ 0.81 µg/mL), 3.8 µM (≈ 1.62 µg/mL) and 14.8 µM (≈ 6.31 µg/mL), respectively.

Consider `Oc1cc(O)c2c(c1)O[C@H](c1ccc(O)c(O)c1)[C@@H](O)C2` [CIANIDANOL], for which the figures for the MIC in the experiment with Cryptococcus neoformans [1] and in the experiment with Candida albicans were 10.7 µM (≈ 3.11 µg/mL) and over 690 µM, respectively.

In the case of `O=C(Oc1cc([C@H]2Oc3cc(O)cc(O)c3C[C@@H]2O)ccc1O)c1cc(O)c(O)c(O)c1`, the values for the MIC with Cryptococcus neoformans [1], in the experiment with Cryptococcus neoformans [2] and against Candida albicans were 113 µM (≈ 50 µg/mL), 113 µM (≈ 50 µg/mL) and over 113 µM, respectively.

Consider `O=C(OC[C@H]1O[C@@H](Oc2c(-c3ccc(O)cc3)oc3cc(O)cc(O)c3c2=O)[C@H](O)[C@@H](O)[C@@H]1O)c1cc(O)c(O)c(O)c1`, for which the MIC is 20.8 µM (≈ 12.5 µg/mL) against Cryptococcus neoformans [1], 83.3 µM (≈ 50 µg/mL) in the experiment with Cryptococcus neoformans [2] and over 83.3 µM against Candida albicans.

In the case of `OC(Cn1cncn1)(Cn1cncn1)c1ccc(F)cc1F` [FLUCONAZOLE], the MIC against Cryptococcus neoformans [1] was determined as 25.5 µM (≈ 7.81 µg/mL); with Cryptococcus neoformans [2] it was 6.5 µM (≈ 1.99 µg/mL); in the experiment with Candida albicans it was 1.6 µM (≈ 0.49 µg/mL).

With `O=C(O)c1cc(O)c(O)c(O)c1` [GALLIC ACID], the MIC in the experiment with Cryptococcus neoformans [1] was 147 µM (≈ 25 µg/mL); with Cryptococcus neoformans [2], 147 µM (≈ 25 µg/mL); with Candida albicans it was over 294 µM.

`O=C(O[C@H]1[C@H](c2c(O)cc(O)c3c2O[C@H](c2ccc(O)c(O)c2)[C@@H](O)C3)c2c(O)cc(O)cc2O[C@@H]1c1ccc(O)c(O)c1)c1cc(O)c(O)c(O)c1`: the MIC is 4.2 µM (≈ 3.07 µg/mL) in the experiment with Cryptococcus neoformans [1], 8.5 µM (≈ 6.21 µg/mL) in the experiment on Cryptococcus neoformans [2] and 17.1 µM (≈ 12.5 µg/mL) against Candida albicans.

In the case of `COc1cc(O)c2c(=O)c(O)c(-c3ccc(O[C@@H]4O[C@H](CO)[C@@H](O)[C@H](O)[C@H]4O)c(O)c3)oc2c1`, the values for the MIC with Cryptococcus neoformans [1], in the experiment with Cryptococcus neoformans [2] and in the experiment with Candida albicans were 52.3 µM (≈ 25 µg/mL), 105 µM (≈ 50 µg/mL) and over 105 µM, respectively.

Turning to `C[C@]12OC(=O)C[C@H]1[C@H]1Oc3cc(O)cc(O)c3C[C@H]1O2`, the MIC against Cryptococcus neoformans [1] is 180 µM (≈ 50 µg/mL); in the experiment with Cryptococcus neoformans [2], 180 µM (≈ 50 µg/mL); with Candida albicans, over 180 µM.

As for `COc1cc(O)c2c(=O)c(O[C@@H]3O[C@H](COC(=O)c4cc(O)c(O)c(O)c4)[C@@H](O)[C@H](O)[C@H]3O)c(-c3ccc(O)c(O)c3)oc2c1`, the MIC against Cryptococcus neoformans [1] is 10 µM (≈ 6.31 µg/mL); against Candida albicans it was over 317 µM.

Turning to `O=C(Oc1ccc([C@H]2Oc3cc(O)cc(O)c3C[C@@H]2O)cc1O)c1cc(O)c(O)c(O)c1`, the MIC in the experiment with Cryptococcus neoformans [1] came to 113 µM (≈ 50 µg/mL); in the experiment on Cryptococcus neoformans [2], 113 µM (≈ 50 µg/mL); against Candida albicans, 56.6 µM (≈ 25 µg/mL).

With `O=C(OC[C@H]1O[C@@H](Oc2c(-c3ccc(O)c(O)c3)oc3cc(O)cc(O)c3c2=O)[C@H](O)[C@@H](O)[C@@H]1O)c1cc(O)c(O)c(O)c1`, the minimal inhibitory concentration (MIC) in the experiment with Cryptococcus neoformans [1] was 2.6 µM (≈ 1.6 µg/mL); with Candida albicans it was over 325 µM.

Regarding `COc1cc(O)c2c(=O)c(O[C@@H]3O[C@@H](C)[C@H](O)[C@@H](O)[C@H]3O)c(-c3ccc(O)cc3)oc2c1`, the results for the minimum inhibitory concentration (MIC) in the experiment on Cryptococcus neoformans [1], in the experiment with Cryptococcus neoformans [2] and against Candida albicans were 56 µM (≈ 25 µg/mL), 56 µM (≈ 25 µg/mL) and over 112 µM, respectively.

`O=C(Oc1cc(O)c2c(c1)O[C@H](c1ccc(O)c(O)c1)CC2)c1cc(O)c(O)c(O)c1`: the figures for the MIC in the experiment on Cryptococcus neoformans [1], against Cryptococcus neoformans [2] and in the experiment on Candida albicans were 1.9 µM (≈ 0.81 µg/mL), 3.8 µM (≈ 1.62 µg/mL) and 14.8 µM (≈ 6.31 µg/mL), respectively.

Consider `COc1c(O)cc(C(=O)O)cc1O`, for which the values for the MIC against Cryptococcus neoformans [1], in the experiment with Cryptococcus neoformans [2] and in the experiment on Candida albicans were 67.9 µM (≈ 12.5 µg/mL), 272 µM (≈ 50 µg/mL) and over 272 µM, respectively.
